Assay: 2AET storage stability at 40° C. in different packages
Type: physicochemical
Procedure: The single phase depilatory was then packaged into two separate containers. The first was an aluminum can with a bag-on-valve system, while the second was a standard high density polyethylene bottle.
The 2AET levels were evaluated at initial, 1 month and 3 months after storage at 40° C. to determine stability profiles.

2AET level (Example 13 single phase depilatory in HDPE (full), 1 month/40° C.): 6.7% | 2AET level (Example 13 single phase depilatory in HDPE (full), 3 months/40° C.): 6.6% | 2AET level (Example 13 single phase depilatory in HDPE (full), initial): 7.2% | 2AET level (Example 13 single phase depilatory in HDPE (half), 1 month/40° C.): 6.3% | 2AET level (Example 13 single phase depilatory in HDPE (half), 3 months/40° C.): 5.9% | 2AET level (Example 13 single phase depilatory in HDPE (half), initial): 7.1% | 2AET level (Example 13 single phase depilatory in aluminum can with bag-on-valve, 1 month/40° C.): 7.3% | 2AET level (Example 13 single phase depilatory in aluminum can with bag-on-valve, 3 months/40° C.): 7.3% | 2AET level (Example 13 single phase depilatory in aluminum can with bag-on-valve, initial): 7.3%
Compound: NCCS [Example 2AET, 2-aminoethanethiol]
